Source: patent publication US11254686B1 (Corvus Pharmaceuticals, Inc., priority 2017, dated 2022)

Tests used:
adenosine A2A receptor = adenosine A2A receptor (Homo sapiens (Human), UniProt P29274); experiment: Adenosine receptor activity assay (Table 1), A2A activity; format: biochemical; settings: read-out: Ave A2A cAMP IC50
[1] = Hepatocyte (Hep) intrinsic clearance, human; format: in vitro ADME; settings: hepatocytes
adenosine A2B receptor = adenosine A2B receptor (Homo sapiens (Human), UniProt P29275); experiment: Adenosine receptor activity assay (Table 1), A2B activity; format: biochemical; settings: for Ratio: A2A activity to A2B activity (A2A/A2B); for IC50: read-out: Ave A2B cAMP IC50
Chain of adenosine A2B receptor (P29275 whole entry): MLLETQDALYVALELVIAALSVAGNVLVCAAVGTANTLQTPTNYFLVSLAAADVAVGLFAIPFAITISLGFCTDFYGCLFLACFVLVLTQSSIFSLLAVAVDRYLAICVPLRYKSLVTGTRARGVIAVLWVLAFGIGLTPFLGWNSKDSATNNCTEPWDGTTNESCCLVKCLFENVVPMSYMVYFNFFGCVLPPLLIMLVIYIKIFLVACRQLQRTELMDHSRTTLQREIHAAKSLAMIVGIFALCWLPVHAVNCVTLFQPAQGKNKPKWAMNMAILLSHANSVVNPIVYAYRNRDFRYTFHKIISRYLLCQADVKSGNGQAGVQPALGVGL

[2] = Liver microsome (LM) intrinsic clearance, human; format: in vitro ADME
[3] = Liver microsome (LM) intrinsic clearance, rat; format: in vitro ADME
CYP3A4 = CYP3A4 (Homo sapiens (Human), UniProt P08684); experiment: CYP450 inhibition at 10 μM, CYP3A4; format: in vitro ADME; settings: human, 10 μM, read-out: CYP 450 % INH @ 10 μM
Chain of CYP3A4 (P08684 whole entry): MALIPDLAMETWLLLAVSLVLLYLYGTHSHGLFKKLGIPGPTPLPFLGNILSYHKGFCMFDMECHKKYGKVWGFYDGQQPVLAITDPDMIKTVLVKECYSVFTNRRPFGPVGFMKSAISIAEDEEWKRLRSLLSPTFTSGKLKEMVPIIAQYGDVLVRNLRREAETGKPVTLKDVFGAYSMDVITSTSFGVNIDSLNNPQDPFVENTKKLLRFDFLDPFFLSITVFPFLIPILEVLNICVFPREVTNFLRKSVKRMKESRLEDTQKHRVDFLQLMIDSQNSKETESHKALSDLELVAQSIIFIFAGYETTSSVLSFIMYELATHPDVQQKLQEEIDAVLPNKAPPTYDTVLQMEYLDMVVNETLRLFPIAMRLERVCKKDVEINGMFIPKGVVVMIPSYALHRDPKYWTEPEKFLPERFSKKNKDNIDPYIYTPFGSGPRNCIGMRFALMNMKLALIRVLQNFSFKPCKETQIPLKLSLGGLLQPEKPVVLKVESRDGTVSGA

adenosine A3 receptor [4] = biological target: T1, adenosine A3 receptor (Homo sapiens (Human), UniProt P0DMS8); experiment: A3 cAMP IC50 assay (Table 1); format: biochemical
T1 sequence (P0DMS8 whole entry): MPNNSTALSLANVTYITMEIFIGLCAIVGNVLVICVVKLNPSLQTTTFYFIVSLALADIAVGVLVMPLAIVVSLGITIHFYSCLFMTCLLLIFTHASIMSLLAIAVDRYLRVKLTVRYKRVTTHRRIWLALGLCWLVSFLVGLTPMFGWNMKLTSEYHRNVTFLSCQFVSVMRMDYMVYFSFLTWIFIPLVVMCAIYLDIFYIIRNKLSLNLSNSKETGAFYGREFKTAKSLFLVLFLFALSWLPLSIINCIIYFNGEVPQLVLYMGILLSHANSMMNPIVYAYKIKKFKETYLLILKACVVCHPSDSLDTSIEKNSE

adenosine A1 receptor [5] = biological target: T2, adenosine A1 receptor (Homo sapiens (Human), UniProt P30542); experiment: A1 cAMP IC50 assay (Table 1); format: biochemical
T2 sequence (P30542 whole entry): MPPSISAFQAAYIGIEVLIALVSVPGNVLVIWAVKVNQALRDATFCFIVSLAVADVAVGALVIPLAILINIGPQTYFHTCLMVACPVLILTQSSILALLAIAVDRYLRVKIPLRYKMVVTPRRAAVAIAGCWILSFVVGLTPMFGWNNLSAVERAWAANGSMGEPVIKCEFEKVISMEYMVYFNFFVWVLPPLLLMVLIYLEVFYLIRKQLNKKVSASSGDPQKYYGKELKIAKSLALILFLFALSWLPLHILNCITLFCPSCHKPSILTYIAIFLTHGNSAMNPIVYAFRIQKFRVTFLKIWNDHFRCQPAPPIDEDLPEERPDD

CYP2D6 = CYP2D6 (Homo sapiens (Human), UniProt P10635); experiment: CYP450 inhibition at 10 μM, CYP2D6; format: in vitro ADME; settings: read-out: CYP 450 % INH @ 10 μM
Chain of CYP2D6 (P10635 whole entry): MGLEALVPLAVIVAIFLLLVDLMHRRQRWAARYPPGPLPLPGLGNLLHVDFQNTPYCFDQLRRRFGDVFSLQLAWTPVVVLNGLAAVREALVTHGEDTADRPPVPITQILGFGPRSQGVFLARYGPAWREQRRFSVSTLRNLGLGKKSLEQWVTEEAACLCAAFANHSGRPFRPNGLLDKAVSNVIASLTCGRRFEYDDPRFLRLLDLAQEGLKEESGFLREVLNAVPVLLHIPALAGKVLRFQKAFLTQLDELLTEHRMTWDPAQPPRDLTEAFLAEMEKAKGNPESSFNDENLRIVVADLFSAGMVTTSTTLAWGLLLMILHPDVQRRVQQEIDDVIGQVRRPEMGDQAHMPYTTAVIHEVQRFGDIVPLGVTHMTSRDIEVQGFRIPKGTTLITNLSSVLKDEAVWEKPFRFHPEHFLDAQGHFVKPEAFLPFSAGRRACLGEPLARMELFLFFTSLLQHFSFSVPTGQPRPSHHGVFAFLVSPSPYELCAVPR

[6] = Hepatocyte (Hep) intrinsic clearance, rat; format: in vitro ADME; settings: hepatocytes
adenosine A3 receptor [7] = biological target: T1, adenosine A3 receptor; experiment: Adenosine receptor activity assay (Table 1), A3 cAMP; format: cell-based
[8] = Hepatocyte intrinsic clearance, human; format: in vitro ADME; settings: hepatocytes
[9] = Hepatocyte intrinsic clearance, rat; format: in vitro ADME; settings: hepatocytes
adenosine A1 receptor [10] = biological target: T2, adenosine A1 receptor; experiment: Adenosine receptor activity assay (Table 1), A1 cAMP; format: cell-based

Chain of adenosine A2A receptor (P29274 whole entry): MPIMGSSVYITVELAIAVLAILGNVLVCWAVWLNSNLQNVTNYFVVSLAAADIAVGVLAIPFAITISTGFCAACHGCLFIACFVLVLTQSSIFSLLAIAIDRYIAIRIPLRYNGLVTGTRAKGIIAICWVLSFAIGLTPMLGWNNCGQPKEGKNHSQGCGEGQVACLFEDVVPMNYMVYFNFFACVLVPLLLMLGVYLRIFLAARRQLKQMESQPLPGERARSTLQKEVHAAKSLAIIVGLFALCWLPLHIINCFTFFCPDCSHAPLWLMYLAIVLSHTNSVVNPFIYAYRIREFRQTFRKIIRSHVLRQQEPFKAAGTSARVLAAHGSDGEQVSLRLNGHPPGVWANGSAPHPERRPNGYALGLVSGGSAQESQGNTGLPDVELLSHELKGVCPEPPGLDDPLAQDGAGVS

IC50 (adenosine A2A receptor)	hepatocyte CLint [1]	Ratio (adenosine A2B receptor)	IC50 (adenosine A2B receptor)	LM CLint [2]	LM CLint [3]	inhibition at 10 µM (CYP3A4)	IC50 (adenosine A3 receptor [4])	IC50 (adenosine A1 receptor [5])	inhibition at 10 µM (CYP2D6)	hepatocyte CLint [6]	IC50 (adenosine A3 receptor [7])	hepatocyte CLint [8]	hepatocyte CLint [9]	IC50 (adenosine A1 receptor [10])	Structure (SMILES)
50 to 100 nM	14.5 µL/min/1e6 cells	1.67	10 to 50 nM	17.68 μL/min/mg/protein	32.42 μL/min/mg/protein	46%	> 500 nM	> 500 nM	13%	58.6 µL/min/1e6 cells	–	–	–	–	COc1ccc(CNC(=O)c2nc(N[C@@H](C)c3ccccn3)nc3ccsc23)cn1 [Example Z16, (S)—N-((6-Methoxypyridin-3-yl)methyl)-2-((1-(pyridin-2-yl)ethyl)amino)thieno[3,2-d]pyrimidine-4-carboxamide]
50 to 100 nM	12.3 µL/min/1e6 cells	0.88	50 to 100 nM	14.28 μL/min/mg/protein	44.15 μL/min/mg/protein	52%	> 500 nM	> 500 nM	44%	68.4 µL/min/1e6 cells	–	–	–	–	CO[C@H]1CCN(C(=O)c2nc(N[C@@H](C)c3cccnc3)nc3ccsc23)C1 [Example Z18, ((S)-3-Methoxypyrrolidin-1-yl)(2-(((S)-1-(pyridin-3-yl)ethyl)amino)thieno[3,2-d]pyrimidin-4-yl)methanone]
10 to 50 nM	12.9 µL/min/1e6 cells	1.37	10 to 50 nM	17.60 μL/min/mg/protein	63.06 μL/min/mg/protein	42%	50 to 100 nM	> 500 nM	51%	83.4 µL/min/1e6 cells	–	–	–	–	CO[C@@H]1CCN(C(=O)c2nc(N[C@@H](C)c3cccnc3)nc3ccsc23)C1 [Example Z19, ((R)-3-Methoxypyrrolidin-1-yl)(2-(((S)-1-(pyridin-3-yl)ethyl)amino)thieno[3,2-d]pyrimidin-4-yl)methanone]
> 500 nM	4.27 µL/min/1e6 cells	24.95	50 to 100 nM	4.28 μL/min/mg/protein	9.22 μL/min/mg/protein	26%	> 500 nM	> 500 nM	16%	44 µL/min/1e6 cells	–	–	–	–	C[C@H](Nc1nc(C(=O)N2CC[C@@H](O)C2)c2sccc2n1)c1cccnc1 [Example Z29, ((R)-3-Hydroxypyrrolidin-1-yl)(2-(((S)-1-(pyridin-3-yl)ethyl)amino)thieno[3,2-d]pyrimidin-4-yl)methanone]
100 to 500 nM	63.2 µL/min/1e6 cells	6.64	10 to 50 nM	51.28 μL/min/mg/protein	33.25 μL/min/mg/protein	49%	> 500 nM	> 500 nM	7%	76.2 µL/min/1e6 cells	–	–	–	–	C[C@H](Nc1nc(C(=O)N2CC(F)(F)C2)c2sccc2n1)c1cccnc1 [Example Z32, (S)-(3,3-Difluoroazetidin-1-yl)(2-((1-(pyridin-3-yl)ethyl)amino)thieno[3,2-d]pyrimidin-4-yl)methanone]
100 to 500 nM	23.5 µL/min/1e6 cells	4.99	10 to 50 nM	53.26 μL/min/mg/protein	81.23 μL/min/mg/protein	82%	> 500 nM	> 500 nM	22%	131 µL/min/1e6 cells	–	–	–	–	C[C@@H]1CCN(C(=O)c2nc(N[C@@H](C)c3cccnc3)nc3ccsc23)C1 [Example Z34, ((R)-3-Methylpyrrolidin-1-yl)(2-(((S)-1-(pyridin-3-yl)ethyl)amino)thieno[3,2-d]pyrimidin-4-yl)methanone]
10 to 50 nM	24.9 µL/min/1e6 cells	1.42	10 to 50 nM	14.10 μL/min/mg/protein	39.84 μL/min/mg/protein	38%	50 to 100 nM	> 500 nM	3%	126 µL/min/1e6 cells	–	–	–	–	C[C@H](NC(=O)c1nc(N[C@@H](C)c2ccccn2)nc2ccsc12)c1ccccn1 [Example Z54, N—((S)-1-(Pyridin-2-yl)ethyl)-2-(((S)-1-(pyridin-2-yl)ethyl)amino)thieno[3,2-d]pyrimidine-4-carboxamide]
> 500 nM	25.6 µL/min/1e6 cells	127.22	10 to 50 nM	63.74 μL/min/mg/protein	94.74 μL/min/mg/protein	76%	> 500 nM	> 500 nM	19%	64.7 µL/min/1e6 cells	–	–	–	–	Cc1cncc(CNc2nc(C(=O)N3CCC3)c3sccc3n2)c1 [Example Z55, Azetidin-1-yl(2-(((5-methylpyridin-3-yl)methyl)amino)thieno[3,2-d]pyrimidin-4-yl)methanone]
100 to 500 nM	22.8 µL/min/1e6 cells	66.23	< 10 nM	34.26 μL/min/mg/protein	46.03 μL/min/mg/protein	65%	> 500 nM	> 500 nM	11%	63.1 µL/min/1e6 cells	–	–	–	–	O=C(c1nc(NCc2cncc(F)c2)nc2ccsc12)N1CC[C@@H](F)C1 [Example Z60, (R)-(2-(((5-Fluoropyridin-3-yl)methyl)amino)thieno[3,2-d]pyrimidin-4-yl)(3-fluoropyrrolidin-1-yl)methanone]
100 to 500 nM	15.4 µL/min/1e6 cells	84.42	< 10 nM	33.16 μL/min/mg/protein	44.58 μL/min/mg/protein	38%	> 500 nM	> 500 nM	10%	44.9 µL/min/1e6 cells	–	–	–	–	O=C(c1nc(NCc2cncc(F)c2)nc2ccsc12)N1CCC1 [Example Z61, Azetidin-1-yl(2-(((5-fluoropyridin-3-yl)methyl)amino)thieno[3,2-d]pyrimidin-4-yl)methanone]
> 500 nM	7.12 µL/min/1e6 cells	60.76	10 to 50 nM	10.76 μL/min/mg/protein	12.51 μL/min/mg/protein	34%	> 500 nM	> 500 nM	5%	25.6 µL/min/1e6 cells	–	–	–	–	O=C(c1nc(NCc2cncc(F)c2)nc2ccsc12)N1CC[C@H](O)C1 [Example Z62, (S)-(2-(((5-Fluoropyridin-3-yl)methyl)amino)thieno[3,2-d]pyrimidin-4-yl)(3-hydroxypyrrolidin-1-yl)methanone]
100 to 500 nM	24.5 µL/min/1e6 cells	12.78	10 to 50 nM	47.64 μL/min/mg/protein	71.55 μL/min/mg/protein	83%	> 500 nM	> 500 nM	39%	65.9 µL/min/1e6 cells	–	–	–	–	C[C@H]1CCN(C(=O)c2nc(N[C@@H](C)c3cccnc3)nc3ccsc23)C1 [Example Z63, ((S)-3-Methylpyrrolidin-1-yl)(2-(((S)-1-(pyridin-3-yl)ethyl)amino)thieno[3,2-d]pyrimidin-4-yl)methanone]
100 to 500 nM	–	197.12	< 10 nM	–	–	–	–	–	–	–	> 500 nM	4.53 µL/min/1e6 cells	20.9 µL/min/1e6 cells	> 500 nM	Cc1cc2nc(N[C@@H](C)c3cncc(F)c3)nc(C(=O)N3CC[C@H](O)C3)c2s1 [Example Z249, (2-(((S)-1-(5-Fluoropyridin-3-yl)ethyl)amino)-6-methylthieno[3,2-d]pyrimidin-4-yl)((S)-3-hydroxypyrrolidin-1-yl)methanone]
100 to 500 nM	–	179.59	< 10 nM	–	–	–	–	–	–	–	> 500 nM	11.9 µL/min/1e6 cells	23.9 µL/min/1e6 cells	> 500 nM	Cc1cc2nc(N[C@@H](C)c3cncc(F)c3)nc(C(=O)N3CC[C@@H](O)C3)c2s1 [Example Z250, (2-(((S)-1-(5-Fluoropyridin-3-yl)ethyl)amino)-6-methylthieno[3,2-d]pyrimidin-4-yl)((R)-3-hydroxypyrrolidin-1-yl)methanone]
50 to 100 nM	–	105.81	< 10 nM	–	–	–	–	–	–	–	50 to 100 nM	9.44 µL/min/1e6 cells	45.9 µL/min/1e6 cells	50 to 100 nM	Cc1cc2nc(N[C@@H](C)c3cncc(F)c3)nc(C(=O)N3CC(O)C3)c2s1 [Example Z267, (S)-(2-((1-(5-Fluoropyridin-3-yl)ethyl)amino)-6-methylthieno[3,2-d]pyrimidin-4-yl)(3-hydroxyazetidin-1-yl)methanone]
